Laboratory results from US7612089B2, “Tetrahydroisoquinolines as factor Xa inhibitors” (Portola Pharmaceuticals, Inc., priority 2004, dated 2009).

biological target: T1, human plasma protein factor Xa (Homo sapiens, UniProt P00742); experiment: Factor Xa IC50 determination (cleavage of paranitroanilide substrate S-2765); type: biochemical; conditions: fXa 1 nM, S2765 100 μM, Tris buffered saline pH 7.4, room temperature
T1 construct: The human plasma protein factor Xa was purchased; purchased Haematologic Technologies (Essex Junction, Vt.); host or cells: human plasma
Description: This example illustrates methods for evaluating the compounds of the invention, along with results obtained for such assays. The in vitro and in vivo Factor Xa isoform activities of the inventive compounds can be determined by various procedures known in the art, such as a test for their ability to inhibit the activity of the Factor Xa isoform. […] The IC50 value is the concentration (in nM) of the compound required to provide 50% inhibition of Factor Xa isoform.
An in vitro assay for detecting and measuring inhibition activity against Factor Xa is as follows:
IC50 and Ki Determinations:
The substrate S-2765 (Z-D-Arg-Gly-Arg-pNA.HCl) was obtained from Diapharma (West Chester, Ohio).
The human plasma protein factor Xa was purchased from Haematologic Technologies (Essex Junction, Vt.).
All assays, which are performed in 96-well microtiter plates, measure proteolytic activity of the enzyme (factor Xa) by following cleavage of paranitroanilide substrate. The assay buffer used for proteolytic assays was Tris buffered saline (20 mM Tris, 150 mM NaCl, 5 mM CaCl2, 0.1% Bovine serum albumin (BSA), 5% Dimethly Sulfoxide (DMSO) pH 7.4). In a 96-well microtiter plate, inhibitor was serially diluted to give a range of concentrations from 0.01 nM to 10 μM (final). Duplicate sets of wells were assayed and control wells without inhibitor were included. Enzyme was added to each well, (fXa concentration=1 nM), the plate was shaken for 5 seconds and then incubated for 5 minutes at room temperature. S2765 was added (100 μM final) and the plate was shaken for 5 seconds (final liquid volume in each well was 200 μl). The degree of substrate hydrolysis was measured at 405 nm on a Thermomax plate reader (Molecular Devices, Sunnyvale, Calif.) for 2 minutes. The initial velocities (mOD/min), for each range of inhibitor concentrations, were fitted to a four parameter equation using Softmax data analysis software. The parameter C, derived from the resulting curve-fit, corresponded to the concentration for half maximal inhibition (IC50).

T1 sequence (P00742 235-488 limits assumed): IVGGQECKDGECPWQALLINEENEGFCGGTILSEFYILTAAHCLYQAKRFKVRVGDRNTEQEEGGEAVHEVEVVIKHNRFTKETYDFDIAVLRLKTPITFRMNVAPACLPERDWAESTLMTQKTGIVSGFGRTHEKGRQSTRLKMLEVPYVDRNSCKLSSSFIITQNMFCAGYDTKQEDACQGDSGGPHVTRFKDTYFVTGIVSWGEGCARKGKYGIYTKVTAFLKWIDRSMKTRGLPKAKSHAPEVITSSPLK
T1 sequence (P00742 41-179 partner limits assumed): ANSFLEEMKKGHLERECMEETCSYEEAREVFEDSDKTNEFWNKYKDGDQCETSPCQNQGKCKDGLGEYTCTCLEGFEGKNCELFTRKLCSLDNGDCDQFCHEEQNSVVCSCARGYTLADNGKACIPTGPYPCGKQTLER

| SMILES | IC50 |
| --- | --- |
| O=C([C@H]1Cc2ccccc2CN1C(=O)Nc1ccc(Cl)cc1)N1CCC(N2CCOCC2=O)CC1 [Example 44, (3R) 4-(3-morpholinon-4-yl)piperidin-1-yl 2N-(4-chlorophenylaminocarbonyl)-1,2,3,4-tetrahydroisoquinoline-3-carboxamide] | ≤ 100 nM |
| CC(C)N1CCC(NC(=O)C2Cc3ccccc3CN2C(=O)Nc2ccc(Cl)cc2)CC1 (centres unmarked) [Example 12, N-(1-isopropylpiperidin-4-yl)2N-(4-chlorophenylaminocarbonyl)-1,2,3,4-tetrahydroisoquinoline-3-carboxamide] | ≥ 500 nM |
| CN1CCCN(c2ccc(NC(=O)C3Cc4sccc4CN3C(=O)Nc3ccc(Cl)cc3)cc2)CC1 (centres unmarked) [Example 27, N-[4-(4-methyl-homopiperazinyl)]phenyl-5N-(4-chlorophenylaminocarbonyl)-4,5,6,7-tetrahydro-thieno[3,2-c]pyridine-6-carboxamide] | ≤ 100 nM |
| CN(C)C(=N)c1ccc(NC(=O)C2Cc3sccc3CN2C(=O)Nc2ccc(Cl)cc2)cc1 (centres unmarked) [Example 26, N-[4-(dimethylaminoimino)phenyl]-5N-(4-chlorophenylaminocarbonyl)-4,5,6,7-tetrahydro-thieno[3,2-c]pyridine-6-carboxamide] | ≤ 100 nM |
| O=C(Nc1ccc(-n2ccccc2=O)cc1)[C@H]1Cc2ccccc2CN1C(=O)Nc1ccc(F)cc1 [Example 47, (3R) N-[4-(2-pyridon-1-yl)phenyl]-2N-(4-fluorophenylaminocarbonyl)-1,2,3,4-tetrahydroisoquinoline-3-carboxamide] | ≤ 100 nM |
| O=C([C@H]1Cc2ccccc2CN1C(=O)Nc1ccc(Cl)cc1)N1CCC(N2CCCCC2=O)CC1 [Example 42, (3R) 4-(2-piperidinon-1-yl)piperidin-1-yl 2N-(4-chlorophenylaminocarbonyl)-1,2,3,4-tetrahydroisoquinoline-3-carboxamide] | ≤ 100 nM |
| O=C(Nc1ccc(-c2cccc[n+]2[O-])cc1)C1c2ccccc2CN1C(=O)Nc1ccc(Cl)cc1 (centres unmarked) [Example 29, N-[4-(1N-oxo-pyridin-2-yl)phenyl]-2N-(4-chlorophenylaminocarbonyl)-2,3-dihydro-1H-isoindole-1-carboxamide] | ≤ 100 nM |
| O=C(Nc1ccc(-n2ccccc2=S)cc1)C1Cc2cc(O)ccc2CN1C(=O)Nc1ccc(Cl)cc1 (centres unmarked) [Example 41, N-[4-(2-thiopyridon-1-yl)phenyl]-2N-(4-chlorophenylaminocarbonyl)-6-hydroxy-1,2,3,4-tetrahydroisoquinoline-3-carboxamide] | ≤ 100 nM |
| COc1cc2c(cc1OC)CN(C(=O)Nc1ccc(Cl)cc1)[C@H](C(=O)Nc1ccc(C(=N)N3CCCC3)cc1)C2 [Example 22, (3S)-N-[4-(pyrrolidinylimino)phenyl]-2N-(4-chlorophenylaminocarbonyl)-6,7-dimethoxy-1,2,3,4-tetrahydroisoquinoline-3-carboxamide] | 100 to 500 nM |
| O=C(Nc1ccc(-c2cccc[n+]2[O-])cc1)C1Cc2ccccc2N1C(=O)Nc1ccc(Cl)cc1 (centres unmarked) [Example 32, N-[4-(1N-oxo-pyridin-2-yl)phenyl]-1N-(4-chlorophenylaminocarbonyl)-indoline-2-carboxamide] | 100 to 500 nM |
| O=C(Nc1ccc(-n2ccccc2=O)cc1)[C@@H]1Cc2ccccc2CN1C(=O)Nc1ccc(Cl)cc1 [Example 37, (3S)N-[4-(2-pyridon-1-yl)phenyl]-2N-(4-chlorophenylaminocarbonyl)-1,2,3,4-tetrahydroisoquinoline-3-carboxamide] | ≤ 100 nM |
| CN(c1ccncc1)c1ccc(NC(=O)C2Cc3ccccc3CN2C(=O)Nc2ccc(Cl)cc2)cc1 (centres unmarked) [Example 17, N-[4-(N-methyl-N-pyridin-4-yl-amino)phenyl]-2N-(4-chlorophenylaminocarbonyl)-1,2,3,4-tetrahydroisoquinoline-3-carboxamide] | ≤ 100 nM |

Further lines, results first:

| IC50 | SMILES |
| --- | --- |
| ≤ 100 nM | CN1CCCN(c2ccc(NC(=O)[C@H]3Cc4ccccc4CN3C(=O)Nc3ccc(Cl)cc3)cc2)CC1 [Example 33, (3R) N-[4-(4-methyl-homopiperazinyl)]phenyl-2N-(4-chlorophenylaminocarbonyl)-1,2,3,4-tetrahydroisoquinoline-3-carboxamide] |
| ≤ 100 nM | O=C(Nc1ccc(C(=O)N2CCSC2)cc1)C1Cc2ccccc2CN1C(=O)Nc1ccc(Cl)cc1 (centres unmarked) [Example 15, N-[4-(3-thiazolidinylcarbonyl)phenyl]-2N-(4-chlorophenylaminocarbonyl)-1,2,3,4-tetrahydroisoquinoline-3-carboxamide] |
| ≤ 100 nM | O=C(Nc1ccc(-n2ccccc2=O)cc1F)[C@H]1Cc2ccccc2CN1C(=O)Nc1ccc(Cl)cc1 [Example 38, (3R) N-[4-(2-pyridon-1-yl)-2-fluorophenyl]-2N-(4-chlorophenylaminocarbonyl)-1,2,3,4-tetrahydroisoquinoline-3-carboxamide] |
| ≤ 100 nM | CN1CCN=C1c1ccc(NC(=O)C2Cc3cc(O)ccc3CN2C(=O)Nc2ccc(Cl)cc2)cc1 (centres unmarked) [Example 24, N-[4-(1-methyl-4,5-dihydro-1H-imidazol-2-yl)phenyl]-2N-(4-chlorophenylaminocarbonyl)-6-hydroxy-1,2,3,4-tetrahydroisoquinoline-3-carboxamide] |
| 100 to 500 nM | CN1CCCN(c2ccc(NC(=O)[C@@H]3Cc4ccccc4CN3C(=O)Nc3ccc(Cl)cc3)cc2)CC1 [Example 34, (3S)N-[4-(4-methyl-homopiperazinyl)]phenyl-2N-(4-chlorophenylaminocarbonyl)-1,2,3,4-tetrahydroisoquinoline-3-carboxamide] |
| ≤ 100 nM | O=C(Nc1ccc(C(=O)N2CCOC2)cc1)C1Cc2ccccc2CN1C(=O)Nc1ccc(Cl)cc1 (centres unmarked) [Example 16, N-[4-(3-oxazolidinylcarbonyl)phenyl]-2N-(4-chlorophenylaminocarbonyl)-1,2,3,4-tetrahydroisoquinoline-3-carboxamide] |
| ≤ 100 nM | O=C(Nc1ccc(-c2cccc[n+]2[O-])cc1)C1Cc2ccccc2CN1C(=O)Nc1ccc(Cl)cc1 (centres unmarked) [Example 2, N-[4-(1N-oxo-pyridin-2-yl)phenyl]-2N-(4-chlorophenylaminocarbonyl)-1,2,3,4-tetrahydroisoquinoline-3-carboxamide] |
| ≤ 100 nM | CN1CCN=C1c1ccc(NC(=O)C2c3ccccc3CN2C(=O)Nc2ccc(Cl)cc2)cc1 (centres unmarked) [Example 28, N-[4-(1-methyl-4,5-dihydro-1H-imidazol-2-yl)phenyl]-2N-(4-chlorophenylaminocarbonyl)-2,3-dihydro-1H-isoindole-1-carboxamide] |
| ≥ 500 nM | CN1CCN=C1c1cccc(CNC(=O)C2Cc3ccccc3CN2C(=O)Nc2ccc(Cl)cc2)c1 (centres unmarked) [Example 7, N-[3-(1-methyl-4,5-dihydro-1H-imidazol-2-yl)benzyl]-2N-(4-chlorophenylaminocarbonyl)-1,2,3,4-tetrahydroisoquinoline-3-carboxamide] |
| ≥ 500 nM | COc1cc2c(cc1OC)CN(C(=O)Nc1ccc(Cl)cc1)[C@H](C(=O)Nc1ccc(C3=NCCN3C)cc1)C2 [Example 21, (3S)-N-[4-(1-methyl-4,5-dihydro-1H-imidazol-2-yl)phenyl]-2N-(4-chlorophenylaminocarbonyl)-6,7-dimethoxy-1,2,3,4-tetrahydroisoquinoline-3-carboxamide] |
| ≤ 100 nM | CN1CCCN(c2ccc(NC(=O)C3Cc4ccccc4CN3C(=O)Nc3ccc(Cl)cc3)cc2)CC1 (centres unmarked) [Example 10, N-[4-(4-methyl-homopiperazinyl)]phenyl-2N-(4-chlorophenylaminocarbonyl)-1,2,3,4-tetrahydroisoquinoline-3-carboxamide] |
